This note sets out measurements from ChEMBL document CHEMBL2163210, “Aryl Piperazinyl Ureas as Inhibitors of Fatty Acid Amide Hydrolase (FAAH) in Rat, Dog, and Primate” (ACS Med Chem Lett, 2012).

Structures are written as SMILES. Activity calls are given as the source filed them. The calls are words filed in the database; no cut-off is given here.

Series [1] is described as follows: Solubility of the compound in deionized water. The format is physicochemical.
Series [2] concerns the target T1, Fatty-acid amide hydrolase 1 (Homo sapiens, UniProt O00519).
T1 sequence (O00519 whole entry): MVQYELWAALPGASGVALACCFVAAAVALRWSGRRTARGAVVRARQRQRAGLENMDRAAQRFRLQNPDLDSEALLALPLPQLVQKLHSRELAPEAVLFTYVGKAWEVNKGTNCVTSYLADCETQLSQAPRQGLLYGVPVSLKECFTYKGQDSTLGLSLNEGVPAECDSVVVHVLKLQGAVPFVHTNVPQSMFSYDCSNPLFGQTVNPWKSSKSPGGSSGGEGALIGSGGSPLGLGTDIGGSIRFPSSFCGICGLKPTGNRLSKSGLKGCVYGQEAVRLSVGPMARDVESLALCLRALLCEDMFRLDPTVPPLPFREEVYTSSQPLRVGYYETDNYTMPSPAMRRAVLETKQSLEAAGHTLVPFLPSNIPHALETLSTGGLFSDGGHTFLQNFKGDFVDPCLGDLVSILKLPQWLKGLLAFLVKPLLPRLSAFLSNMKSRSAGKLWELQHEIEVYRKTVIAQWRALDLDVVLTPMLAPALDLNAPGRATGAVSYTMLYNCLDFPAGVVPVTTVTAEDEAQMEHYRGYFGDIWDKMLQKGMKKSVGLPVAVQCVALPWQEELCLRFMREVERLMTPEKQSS
The series can be described thus: Inhibition of human FAAH after 1 hr.

Series [3] addresses T2, Fatty-acid amide hydrolase 1 (Rattus norvegicus, UniProt P97612).
T2 sequence (P97612 whole entry): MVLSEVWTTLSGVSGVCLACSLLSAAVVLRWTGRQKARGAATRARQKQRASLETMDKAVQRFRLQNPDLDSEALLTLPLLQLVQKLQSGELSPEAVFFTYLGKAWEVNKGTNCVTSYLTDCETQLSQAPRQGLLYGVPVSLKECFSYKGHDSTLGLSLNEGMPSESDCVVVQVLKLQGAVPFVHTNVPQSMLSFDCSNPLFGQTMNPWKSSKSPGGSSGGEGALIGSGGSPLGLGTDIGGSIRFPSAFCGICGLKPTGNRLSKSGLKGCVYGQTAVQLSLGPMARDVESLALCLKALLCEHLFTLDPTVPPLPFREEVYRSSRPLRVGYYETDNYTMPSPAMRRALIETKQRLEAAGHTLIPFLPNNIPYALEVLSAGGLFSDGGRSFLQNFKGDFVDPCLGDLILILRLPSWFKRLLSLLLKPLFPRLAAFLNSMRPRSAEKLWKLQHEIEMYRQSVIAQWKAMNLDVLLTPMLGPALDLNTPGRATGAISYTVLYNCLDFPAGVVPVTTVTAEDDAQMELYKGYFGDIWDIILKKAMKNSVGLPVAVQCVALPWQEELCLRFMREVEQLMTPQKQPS
Description: Inhibition of rat FAAH after 1 hr

The species entered for series [4] is Rattus norvegicus. As to conditions: 3 mg/kg.
Description: Inhibition of FAAH in rat at 3 mg/kg, po at 24 hrs
Series [5] is filed under the species Rattus norvegicus. The note with it: 3 mg/kg. This is another data set of the same source.
Description: Inhibition of FAAH in rat at 3 mg/kg, po at 48 hrs

What is called solubility is the dissolved amount per volume that the medium holds. A higher solubility goes with much dissolved substance. Molecule `Cl.O.O=C(Nc1cccnc1)N1CCN(Cc2cccc(Oc3ccc(Cl)cc3)c2)CC1` had a solubility in series [1] greater than 20 mg/mL.

The term IC50 denotes the concentration that inhibits the measured activity by half. Consider `O=C(Nc1ccccc1)N1CCN(Cc2ccc(C(F)(F)F)cc2)CC1`, for which the IC50 turned out to be 50 nM in series [2] and 260 nM in series [3].

As for `COc1ccc(CN2CCN(C(=O)Nc3ccccc3)CC2)cc1`, the 50% inhibitory concentration (IC50) in series [2] turned out to be 490 nM.

With `O=C(Nc1cccnc1)N1CCN(Cc2cccc(Oc3ccc(Cl)cc3)c2)CC1`, the inhibition result in series [4] and in series [5] was “inactive” throughout.

`O=C(Nc1ccccc1)N1CCN(Cc2cccc(Oc3ccccc3)c2)CC1`: the IC50 in series [2] was 74 nM; in series [3], 6670 nM.

Take `Cc1ccc(Oc2cccc(CN3CCN(C(=O)Nc4ccccc4)CC3)c2)cc1`: the results for the IC50 in series [2] and in series [3] were 11 nM and 640 nM, respectively.

Take `O=C(Nc1ccccc1)N1CCN(Cc2ccc(Oc3ccc(Cl)cc3)cc2)CC1`: the IC50 in series [2] worked out at 62 nM; in series [3], 4000 nM.

With `O=C(Nc1ccccn1)N1CCN(Cc2cccc(Oc3ccc(Cl)cc3)c2)CC1`, the results for the IC50 in series [2] and in series [3] were 12 nM and 470 nM, respectively.

For `O=C(Nc1ccccc1)N1CCN(Cc2ccc(Oc3ccccc3)cc2)CC1`, the results for the IC50 in series [2] and in series [3] were 2830 nM and greater than 10000 nM, respectively.

For `O=C(Nc1ccccc1)N1CCN(Cc2cccc(Cl)c2)CC1`, the IC50 in series [2] stood at 840 nM; in series [3], 5600 nM.

For the molecule `O=C(Nc1ccccc1)N1CCN(Cc2ccccc2Cl)CC1`, the IC50 is 4670 nM in series [2] and greater than 10000 nM in series [3].

`COc1ccc(Oc2cccc(CN3CCN(C(=O)Nc4ccccc4)CC3)c2)cc1`: the figures for the IC50 in series [2] and in series [3] were 12 nM and 133 nM, respectively.

For the molecule `O=C(Nc1ccccc1)N1CCN(Cc2ccc(F)cc2)CC1`, the figures for the IC50 in series [2] and in series [3] were 2770 nM and greater than 10000 nM, respectively.

For `O=C(Nc1ccccc1)N1CCN(Cc2ccccc2)CC1`, the IC50 in series [2] and in series [3] was greater than 10000 nM in each case.
